In patent EP0257992A2, “Prophylactic and therapeutic agents for cerebral ischemia” (YAMANOUCHI PHARMACEUTICAL CO. LTD., priority 1986, dated 1988):
Marks after values point to notes of the source that are not given here.

Assays:
autoblood-injected rats = test: Neural condition (duration of forced posture) of autoblood-injected rats; format: in vivo, Male Wistar rats; conditions: 300 mg/kg i.p. once a day, 30 minutes after administration
Procedure: (§1) Male Wistar rats (weighing about 300 g) were anesthesized with pentobarbital (40 mg/kg i.e.) and fixed on a brain normal position fixing device. In order to form hematoma in the brain, 0.2 cc of autoblood previously collected from the tail vein was injected in the site of the brain at 4 mm to the right from the arrow suture, at 2 mm to the tail side from the crown suture and at 4 mm of the brain surface. The left rear paw was forced onto a stand having a height of 4.5 cm and the time from which the forced posture was maintained was measured and evaluated as neural condition. The ester was intraperitoneally administered immediately after the injection of autoblood and then once a day. Physiological saline alone was given to the control group. The measurement of neural condition was made after the operation daily for 4 consecutive days, 30 minutes after administration.
(1) mg/kg i.p.: amount of a single dose given. (2) Unit: second (3) Number of days after the operation. *5% is a significant difference in duration as compared to the control group (group given physiological saline). **1% is a significant difference in duration as compared to the control group. Number of animals: 10 - 11.

[1] = system: Malonedealdehyde in the Brain of Rats Injected with Autoblood; test: Malonedealdehyde (lipid peroxide) content in the brain of autoblood-injected rats; format: in vivo, Male Wistar rats; conditions: 300 mg/kg i.p. once a day; right hemispherical brain on the fourth day after the operation; control 168±15
Procedure: as §1, with “The measurement of neural condition was made after the operation daily for 4 consecutive days, 30 minutes after administration.” left out
Immediately after the observation of the neural condition on the fourth day of the operation, the head of each rat was cut off and the right hemispherical brain was isolated. The lipid peroxides in the brain were fluorometrically determined by forming about 10% of a homogenate with 1.15% potassium chloride, taking 0.1 ml of the homogenate and measuring using malonedealdehyde as a standard substance according to Yagi's method.
Futher in Table IV are shown the results of the effect on malonedealdehyde in the brain. The results were evaluated by the Student's t-test. […]

[2] = system: rats ligated at carotids (both sides); test: Death of rats ligated at both carotids (cerebral ischemia); format: in vivo, male Wistar rats; conditions: 300 mg/kg i.p. per single dose, given immediately after and 1 and 2 hours after ligation; dead animals 24 hours after ligation; 24 animals; control 21 dead
Procedure: Both carotids of male Wistar rats (weighting about 300 g) were permanently ligated to cause a cerebral ischemic state. The rats suffered neural conditions (paralysis or spasm of the limbs, etc.) and most of them died in 24 hours. The influence of the ester on death 24 hours afer ligation was examined. The ester was intraperitoneally administered immediately after the ligation, and 1 and 2 hours after the ligation. Physiological saline alone was given to the control group.
(1) mg/kg i.p.: amount of a single dose given. (2) Number of dead animals 24 hours after ligation *5% is a significant difference in death rate compared to the control group (group given physiological saline.

low oxygen-loaded mice = test: Survival time of low oxygen-loaded mice; format: in vivo, Male ICR mice; conditions: 300 mg/kg single dose 10 minutes before inhalation of 95.3% nitrogen / 4.7% oxygen; 14 animals; control 201±18
Procedure: Male ICR mice (weighing about 30 g) were put in a glass vessel having a volume of 2 liters, equipped with an inhalation opening and an exhaust opening. A gaseous mixture of 95.3% nitrogen and 4.7% oxygen was blown into the vessel at 5 ℓ/min. to cause a low oxygen state, and the time for mice to die was measured. The ester was intravenously administered 10 minutes before the inhalation of the gaseous mixture. Only physiological saline was given to the control group.
(1) mg/kg i.p.: amount of a single dose given. (2) Unit: second * 5%is a significant difference in death rate as compared to the control group (group given physiological saline).

[3] = Acute toxicity (LD50) on intraperitoneal injection into mice; conditions: mouse, in vivo, ip, read-out: acute toxicity (LD₅₀)
Description: The isopropyl ester (I) and salts have an acute toxicity (LD₅₀) of approximately 5.3 g/kg on intraperitoneal injection into mice.

CC(C)OC(=O)CNC(=O)[C@H](CS)NC(=O)CC[C@H](N)C(=O)O [Glutathione monoisopropyl ester, isopropyl γ-L-glutamyl-L-cysteinyl glycinate]
Duration, Day 1 (autoblood-injected rats; Day 1 after the operation, control 42±10): 11 ± 5 s
Duration, Day 2 (autoblood-injected rats; Day 2 after the operation, control 53±12): 22 ± 11 s
Duration, Day 3 (autoblood-injected rats; Day 3 after the operation, control 43±11): 8 ± 1 s
Duration, Day 4 (autoblood-injected rats; Day 4 after the operation, control 31±10): 7 ± 1 s
Content of Malonedealdehyde [1]: 97±20 nmol/g wet weight
Number of Dead Animals [2]: 15*
Survival Time (low oxygen-loaded mice): 262 ± 22 s
LD50 [3]: ~5300 mg/kg
